Tests used:
Type in all cases: in vivo
[1] = system: Italian ryegrass (Lolium multiflorum); assay: Test B pre-/postemergence plant response; conditions: for Ryegrass, Italian plant response rating (0 to 100 scale): 62 g ai/ha, 0 is no effect, 13 to 15 days
Procedure, shortened: (§1)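 Test compounds, formulated in a non-phytotoxic solvent mixture with surfactant, are applied to the soil surface (loam and sand blend) right after seeding, or sprayed over plants at the 1- to 4-leaf stage grown in peat moss/vermiculite medium. After 13 to 15 days under glasshouse conditions, each species is scored visually from 0 (no effect) to 100 (complete control) against controls.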

[2] = system: giant foxtail (Setaria faberii); assay: Test B pre-/postemergence plant response; conditions: for Foxtail, Giant plant response rating (0 to 100 scale): 62 g ai/ha, 0 is no effect, 13 to 15 days
Procedure, shortened: as §1

[3] = system: ragweed (common ragweed, Ambrosia elatior); assay: Test B pre-/postemergence plant response; conditions: for Ragweed plant response rating (0 to 100 scale): 62 g ai/ha, 0 is no effect, 13 to 15 days
Procedure, shortened: as §1

[4] = system: canarygrass (Phalaris minor); assay: Test B postemergence plant response; conditions: for Canarygrass plant response rating (0 to 100 scale): 62 g ai/ha, 0 is no effect, 13 to 15 days
Procedure, shortened: (§2)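 Visual ratings from 0 (no effect) to 100 (complete control), made against controls 13–15 days after treatment, kept in a greenhouse. Compounds were applied postemergence to potted plants at the 1- to 4-leaf stage (2–18 cm).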

[5] = system: chickweed (Stellaria media); assay: Test B postemergence plant response; conditions: for Chickweed plant response rating (0 to 100 scale): 62 g ai/ha, 0 is no effect, 13 to 15 days
Procedure, shortened: as §2

[6] = system: windgrass (Apera spica-venti); assay: Test B postemergence plant response; conditions: for Windgrass plant response rating (0 to 100 scale): 62 g ai/ha, 0 is no effect, 13 to 15 days
Procedure, shortened: as §2

[7] = system: winter barley (Hordeum vulgare); assay: Test B postemergence plant response; conditions: for Barley plant response rating (0 to 100 scale): 62 g ai/ha, 0 is no effect, 13 to 15 days
Procedure, shortened: as §2

[8] = system: barnyardgrass (Echinochloa crus-galli); assay: Test B flooded paddy test; conditions: for Plant response rating, Flood, Barnyardgrass: 250 g ai/ha, flooded paddy test, visual rating on 0 to 100 scale (0 no effect, 100 complete control) after 13 to 15 days; for Plant response rating, Barnyardgrass: Flood (flooded paddy test), 13 to 15 days; for Barnyardgrass plant response rating: Flood, 31 g ai/ha, scale 0 to 100 (0 no effect, 100 complete control)
Procedure, shortened: (§3)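 Ratings are visual, 0–100 (100 = complete control), taken versus untreated controls 13 to 15 days after treatment in the greenhouse. Compound went straight into paddy water held 3 cm above soil, applied to 2-leaf-stage plants of four species.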

[9] = system: ducksalad (Heteranthera limosa); assay: Test B flooded paddy test; conditions: for Plant response rating, Flood, Ducksalad: 250 g ai/ha, flooded paddy test, visual rating on 0 to 100 scale (0 no effect, 100 complete control) after 13 to 15 days; for Plant response rating, Ducksalad: Flood (flooded paddy test), 13 to 15 days; for Ducksalad plant response rating: Flood, 31 g ai/ha, scale 0 to 100 (0 no effect, 100 complete control)
Procedure, shortened: as §3

rice (Oryza sativa) = assay: Test B flooded paddy test; conditions: for Plant response rating, Flood, Rice: 250 g ai/ha, flooded paddy test, visual rating on 0 to 100 scale (0 no effect, 100 complete control) after 13 to 15 days; for Plant response rating, Rice: Flood (flooded paddy test), 13 to 15 days; for Rice plant response rating: Flood, 31 g ai/ha, scale 0 to 100 (0 no effect, 100 complete control)
Procedure, shortened: as §3

[10] = system: umbrella sedge (Cyperus difformis); assay: Test B flooded paddy test; conditions: for Plant response rating, Flood, Sedge, Umbrella: 250 g ai/ha, flooded paddy test, visual rating on 0 to 100 scale (0 no effect, 100 complete control) after 13 to 15 days; for Plant response rating, Sedge, Umbrella: Flood (flooded paddy test), 13 to 15 days; for Sedge, Umbrella plant response rating: Flood, 31 g ai/ha, scale 0 to 100 (0 no effect, 100 complete control)
Procedure, shortened: as §3

[11] = 31 g ai/ha, postemergence, scale 0 to 100, 0 is no effect, 100 is complete control
[12] = postemergence, 100 is complete control
[13] = Postemergence, 250 g ai/ha, scale 0 to 100 (0 no effect, 100 complete control)
[14] = Postemergence, 125 g ai/ha, visual rating after 13 to 15 days, scale 0 (no effect) to 100 (complete control)
[15] = 62 g ai/ha, scale of 0 to 100 where 0 is no effect and 100 is complete control
[16] = 125 g ai/ha, scale 0 to 100, 0 is no effect, 100 is complete control
[17] = Postemergence, 125 g ai/ha, scale 0 to 100 (0 no effect, 100 complete control)

`CCCCCCn1c(-c2ccccc2)ncc(C(=O)C2=C(O)CCCC2=O)c1=O` [Compound 94] was tested, and the “Plant response rating, Ryegrass, Italian” value [1, 11] was 0, the “Ryegrass, Italian plant response rating (0 to 100 scale)” value [1, 12] was 0 and the “Plant response rating, Ryegrass, Italian” value [1, 13] was 10. The “Plant response rating, Foxtail, Giant” value [2, 11] was 65, the “Foxtail, Giant plant response rating (0 to 100 scale)” value [2, 12] was 75 and the “Plant response rating, Foxtail, Giant” value [2, 13] was 98. For the same molecule, the “Plant response rating, Ragweed” value [3, 11] was 40, the “Ragweed plant response rating (0 to 100 scale)” value [3, 12] was 45 and the “Plant response rating, Ragweed” value [3, 13] was 80. For the same molecule, the “Plant response rating, Canarygrass” value [4, 11] was 0, the “Canarygrass plant response rating (0 to 100 scale)” value [4, 12] was 5 and the “Plant response rating, Canarygrass” value [4, 14] was 30. For the same molecule, the “Plant response rating, Canarygrass” value [4, 13] was 35, the “Plant response rating, Chickweed” value [5, 11] was 95 and the “Chickweed plant response rating (0 to 100 scale)” value [5, 12] was 100. The “Plant response rating, Chickweed” value [5, 14] was 100, the “Plant response rating, Chickweed” value [5, 13] was 100 and the “Plant response rating, Windgrass” value [6, 11] was 0. The “Windgrass plant response rating (0 to 100 scale)” value [6, 12] was 40, the “Plant response rating, Windgrass” value [6, 13] was 50 and the “Plant response rating, Barley” value [7, 11] was 0. For the same molecule, the “Barley plant response rating (0 to 100 scale)” value [7, 12] was 0, the “Plant response rating, Barley” value [7, 14] was 5 and the “Plant response rating, Barley” value [7, 13] was 5. For the same molecule, the “Plant response rating, Flood, Barnyardgrass” value [8] was 60, the “Plant response rating, Barnyardgrass” value [8, 15] was 0 and the “Plant response rating, Barnyardgrass” value [8, 16] was 40. The “Barnyardgrass plant response rating” value [8] was 0, the “Plant response rating, Flood, Ducksalad” value [9] was 30 and the “Plant response rating, Ducksalad” value [9, 15] was 20. For the same molecule, the “Plant response rating, Ducksalad” value [9, 16] was 25, the “Ducksalad plant response rating” value [9] was 0 and the “Plant response rating, Flood, Rice” value (rice (Oryza sativa)) was 35. For the same molecule, the “Plant response rating, Rice” value (rice (Oryza sativa); [15]) was 0, the “Plant response rating, Rice” value (rice (Oryza sativa); [16]) was 20 and the “Rice plant response rating” value (rice (Oryza sativa)) was 0. The “Plant response rating, Flood, Sedge, Umbrella” value [10] was 85, the “Plant response rating, Sedge, Umbrella” value [10, 15] was 70 and the “Plant response rating, Sedge, Umbrella” value [10, 16] was 85. For the same molecule, the “Sedge, Umbrella plant response rating” value [10] was 20.
In the case of `O=C1CCCC(O)=C1C(=O)c1cnc(-c2ccsc2)n(C2CCCCC2)c1=O` [Compound 99], the “Ryegrass, Italian plant response rating (0 to 100 scale)” value [1, 12] is reported as 0, the “Plant response rating, Ryegrass, Italian” value [1, 17] is reported as 20 and the “Plant response rating, Ryegrass, Italian” value [1, 13] is reported as 20. For the same molecule, the “Plant response rating, Foxtail, Giant” value [2, 11] was 75, the “Foxtail, Giant plant response rating (0 to 100 scale)” value [2, 12] was 80 and the “Plant response rating, Foxtail, Giant” value [2, 17] was 95. For the same molecule, the “Plant response rating, Foxtail, Giant” value [2, 13] was 95, the “Ragweed plant response rating (0 to 100 scale)” value [3, 12] was 80 and the “Plant response rating, Ragweed” value [3, 17] was 80. The “Plant response rating, Ragweed” value [3, 13] was 95, the “Plant response rating, Canarygrass” value [4, 11] was 40 and the “Canarygrass plant response rating (0 to 100 scale)” value [4, 12] was 60. The “Plant response rating, Canarygrass” value [4, 17] was 60, the “Plant response rating, Canarygrass” value [4, 13] was 70 and the “Plant response rating, Chickweed” value [5, 11] was 80. The “Chickweed plant response rating (0 to 100 scale)” value [5, 12] was 98, the “Plant response rating, Chickweed” value [5, 17] was 98 and the “Plant response rating, Chickweed” value [5, 13] was 98. The “Windgrass plant response rating (0 to 100 scale)” value [6, 12] was 5, the “Plant response rating, Windgrass” value [6, 17] was 10 and the “Plant response rating, Windgrass” value [6, 13] was 60. For the same molecule, the “Plant response rating, Barley” value [7, 11] was 5, the “Barley plant response rating (0 to 100 scale)” value [7, 12] was 5 and the “Plant response rating, Barley” value [7, 17] was 10. For the same molecule, the “Plant response rating, Barley” value [7, 13] was 30, the “Plant response rating, Flood, Barnyardgrass” value [8] was 55 and the “Plant response rating, Barnyardgrass” value [8, 15] was 20. For the same molecule, the “Plant response rating, Barnyardgrass” value [8, 16] was 20, the “Barnyardgrass plant response rating” value [8] was 0 and the “Plant response rating, Flood, Ducksalad” value [9] was 80. The “Plant response rating, Ducksalad” value [9, 15] was 40, the “Plant response rating, Ducksalad” value [9, 16] was 75 and the “Ducksalad plant response rating” value [9] was 30. The “Plant response rating, Flood, Rice” value (rice (Oryza sativa)) was 60, the “Plant response rating, Rice” value (rice (Oryza sativa); [15]) was 0 and the “Plant response rating, Rice” value (rice (Oryza sativa); [16]) was 0. For the same molecule, the “Rice plant response rating” value (rice (Oryza sativa)) was 0, the “Plant response rating, Flood, Sedge, Umbrella” value [10] was 85 and the “Plant response rating, Sedge, Umbrella” value [10, 15] was 50. The “Plant response rating, Sedge, Umbrella” value [10, 16] was 65 and the “Sedge, Umbrella plant response rating” value [10] was 50.

From patent US8952024B2, “Herbicidal pyrimidone derivatives” (E I du Pont de Nemours and Company, priority 2009, dated 2015)
